Earlier results on two molecules are cited in US7659300B2, “Monocyclic anilide spirolactam CGRP receptor antagonists” (Merck Sharp & Dohme Corp., priority 2004, dated 2010).

No end group written: not given here.

Series [1] relates to facial blood flow. Conditions: marmoset, electrical stimulation of the trigeminal ganglion (Doods et al. 2000).
The next series has as its system migraine. Conditions: clinical studies, intravenously administered (Olesen et al. 2004).
The test system of a further series is middle meningeal artery. Conditions: rats, electrical stimulation of the dura mater, prior administration (Williamson et al. 1997).
For series [2], the system named is facial blood flow. Conditions: rat, trigeminal ganglion stimulation (Escott et al. 1995).

In the case of `NCCCC[C@H](NC(=O)[C@@H](Cc1cc(Br)c(O)c(Br)c1)NC(=O)N1CCC(N2Cc3ccccc3NC2=O)CC1)C(=O)N1CCN(c2ccncc2)CC1` [BIBN4096BS], in the series on facial blood flow [1], the “increase in facial blood flow” value is “blocked”. The “acute treatment of migraine” value with migraine is “safe and effective acute treatment for migraine”.

Regarding “CGRP(8-37): a peptide CGRP antagonist; fragment of CGRP that lacks seven N-terminal amino acid residues (VTHRLAGLLSRSGGVVKNNFVPTNVGSKAF; ends and bridges not checked; UniProt P06881 90-119, looked up, fragment)”, the “increase of the diameter of the middle meningeal artery” value with middle meningeal artery is recorded as “blocked”. The “increase of facial blood flow” value in the series on facial blood flow [2] is “inhibited”.
